According to patent US20080287396A1, “Phosphonated Fluoroquinolones, Antibacterial Analogs Thereof, and Methods for the Prevention and Treatment of Bone and Joint Infections” (TARGANTA THERAPEUTICA INC., priority 2005, published 2008):

Tests used:
[1] = Bone powder binding, fluorometric detection; conditions: for Binding to bone (%) Fluorescence: 1 mg/ml compound, bone meal powder 10 mg/ml in PBS, 37° C., 1 h; for binding to osseous matter, in words: bisphosphonates bearing three hydroxy groups
Procedure: The ability of the example molecules to bind to bone powder was established in two parallel fashions, using either LC/MS or fluorometric detection. For LC/MS detection, a stock solution (5 mM) of the compound to be tested was added to 0.1M Tris-HCl buffer pH 7, 0.15M NaCl to reach a final concentration of 100 μM. Triplicate samples (1 mL) of the compound solutions were intensively shaken for 10 min with or without 25 mg of fresh or 20 mg of vacuum dried ground rat tibia bone. The samples were then centrifuged for 15 min at 10 000 g. The presence of unbound compound was measured by injection of 30 μL of each of the supernatants into an Agilent 1100™ LC/UV system. For fluorometric detection, an individual compound was dissolved in PBS or water (compound 52) and resuspended at a concentration of 1 mg/ml in a slurry of bone meal powder (Now Foods, Bloomingdale, Ill., USA) in PBS at 10 mg/ml. The suspension of drug/prodrug in bone meal powder was incubated at 37° C. for 1 h to allow for binding, and centrifuged at 13 000 rpm for 2 min, before recovering the supernatant. The bone meal powder pellet was then washed three times with 1 ml of PBS. All supernatants were saved and assessed for fluoroquinolone content by fluorescence measurements at excitation/emission wavelengths of 280/465 nm. The amount of fluoroquinolone was determined from standard curves generated for each experiment. Amount of drug/prodrug bound to bone powder was deduced from the difference between the input amount (typically 1 mg) and the amount recovered in the supernatants after binding. In all binding experiments, >99% of input drug was recovered in the supernatant for the parent drugs.

S. aureus ATCC 13709 = experiment: Prophylactic model of bone infection in rats; assay type: in vivo, rat; conditions: for prophylactic effect in rat model of bone infection, in words: Table 4 and FIGS. 6-8, doses as in Table 4
Procedure: To determine the activity in vivo of bisphosphonated prodrugs of fluoroquinolones, compounds 52 and 107, derivatives of parent compounds moxifloxacin 3 (for 52), and compounds 39, 44, 49, 54, 121, 129, 141, 145, 149, derivatives of parent compound gatifloxacin 15, were used in a prophylactic model for infection. Specifically, S. aureus ATCC 13709 cells were grown overnight at 37° C. in brain heart infusion broth (BHIB). Cells were subcultured into fresh BHIB and incubated for 4 to 5 h at 37° C. The cells were washed twice with phosphate-buffered saline (PBS) and resuspended in BHIB supplemented with 10% (vol./vol.) fetal bovine serum at a density of approximately 10^10 colony forming units (CFU)/ml (based upon turbidimetry). The suspension was aliquoted and a portion was used to check the CFU count. The culture was stored frozen (−80° C.) and was used without subculture. For use as an inoculum the culture was thawed, diluted in PBS and kept in an ice bath until it was used.
Animals were infected as described by O'Reilly et al. (Antimicrobial Agents and Chemotherapy (1992), 36(12): 2693-97) to generate the bone infection. Female CD rats (age, 57 to 70 days; n=5/group; Charles River, St-Constant, Canada) were anaesthetized by isofluorane before and during the surgery. Following complete induction of anesthesia, the rat was placed ventral side up and hair was shaved from the surgical site. The skin over the leg was cleaned and disinfected (proviodine-ethanol 70%). A longitudinal incision below the knee joint was made in the sagital plane. The incision was made over the bone below the “knee joint” (tibia head or condyle) but not completely extending to the ankle. A high speed drill fitted with a 2 mm bulb bit was used to drill a hole into the medullar cavity of the tibia. Rats were injected intra-tibially with 0.05 ml 5% sodium morrhuate (sclerosing agent) and then with 0.05 ml of S. aureus suspension (ca. 5×10^5 CFU/rat). The hole was sealed by applying a small amount of dry dental cement which immediately absorbs fluids and adheres to the site. The wound was closed using 3 metal skin clips. Moxifloxacin 3 (as a positive control) was injected once at 10 mg/kg intravenously 1 h postinfection in saline, while the fluoroquinolone prodrugs (prepared in 0.9% saline) were injected as a single intravenous bolus dose at different time points prior to the infection. For comparison, the parent drug (moxifloxacin 3 or gatifloxacin 15) was also injected intravenously once at a molar equivalent dose at the same time point prior the infection.
Infected rats were sacrificed by CO2 asphyxiation 24 h postinfection to monitor the bacterial CFU count. Infected tibiae were removed, dissected free of soft tissue, and weighed. The bones were ground using a metal ball mill, resuspended in 5 ml 0.9% NaCl, serially diluted and processed for quantitative cultures. For compounds 39, 44, 49, 54, 141, 145, 149, 1 ml of the 0.9% NaCl solution was added to 50 mg of charcoal before serial dilutions. Treatment efficacies were measured in terms of Log viable bacteria (Log CFU per gram of bone). The results obtained for each group of rats were evaluated by calculating the mean Log CFU and standard deviation. The limit of detection is 2 Log CFU/g of bone. Statistical comparisons of viable bacterial counts for the different treated and untreated groups were performed with Dunnett's multiple-comparison test. Differences were considered significant when the P value was <0.05 when comparing treated infected animals to the untreated infected ones.

Compound | Binding to bone (%) Fluorescence [1] | prophylactic effect in rat model of bone infection, in words (S. aureus ATCC 13709) | also measured
O=C(O)c1cn(C2CC2)c2cc(N3CCNCC3)c(F)cc2c1=O [Compound 6, Ciprofloxacin, reference compound] | 0% |  | 
COc1c(N2C[C@@H]3CCCN[C@@H]3C2)c(F)cc2c(=O)c(C(=O)OCC(=O)Nc3ccc(CC(P(=O)(O)O)P(=O)(O)O)cc3)cn(C3CC3)c12 [Compound 62, (4-(2,2-Bisphosphonoethyl)phenylcarbamoyl)methyl 1-cyclopropyl-6-fluoro-1,4-dihydro-7-((4aS,7aS)-octahydropyrrolo[3,4-b]pyridin-6-yl)-8-methoxy-4-oxoquinoline-3-carboxylate] | 97.2% |  | 
COc1c(N2C[C@@H]3CCCN[C@@H]3C2)c(F)cc2c(=O)c(C(=O)OCC(=O)N(C)C(P(=O)(O)O)P(=O)(O)O)cn(C3CC3)c12 [Compound 80, (N-Methyl-1,1-Bisphosphonomethylcarbamoyl)methyl 1-cyclopropyl-6-fluoro-1,4-dihydro-7-((4aS,7aS)-octahydropyrrolo[3,4-b]pyridin-6-yl)-8-methoxy-4-oxoquinoline-3-carboxylate] | 97.3% |  | 
COc1c(N2C[C@@H]3CCCN[C@@H]3C2)c(F)cc2c(=O)c(C(=O)SCCCC(P(=O)(O)O)P(=O)(O)O)cn(C3CC3)c12 [Compound 94, S-4,4-bisphosphonobutyl 7-((4aS,7aS)-octahydropyrrolo[3,4-b]pyridin-6-yl)-1-cyclopropyl-6-fluoro-1,4-dihydro-8-methoxy-4-oxoquinoline-3-carbothioate] | 99.9% |  | 
COc1c(N2CCNC(C)C2)c(F)cc2c(=O)c(C(=O)SCCCC(P(=O)(O)O)P(=O)(O)O)cn(C3CC3)c12 (centres unmarked) [Compound 96, S-4,4-bisphosphonobutyl 7-(3-methylpiperazin-1-yl)-1-cyclopropyl-6-fluoro-1,4-dihydro-8-methoxy-4-oxoquinoline-3-carbothioate] | 98.7% |  | 
COc1c(N2C[C@@H]3CCCN[C@@H]3C2)c(F)cc2c(=O)c(C(=O)SCC(=O)NC(P(=O)(O)O)P(=O)(O)O)cn(C3CC3)c12 [Compound 99, S-(1,1-Bisphosphonomethylcarbamoyl)methyl 1-cyclopropyl-6-fluoro-1,4-dihydro-7-((4aS,7aS)-octahydropyrrolo[3,4-b]pyridin-6-yl)-8-methoxy-4-oxoquinoline-3-carbothioate] | 99.0% |  | 
COc1c(N2C[C@@H]3CCCN(C(=O)CC(P(=O)(O)O)P(=O)(O)O)[C@@H]3C2)c(F)cc2c(=O)c(C(=O)O)cn(C3CC3)c12 [Compound 107, 7-((4aS,7aS)-1-(3,3-bisphosphonopropionyl)-octahydropyrrolo[3,4-b]pyridin-6-yl)-1-cyclopropyl-6-fluoro-1,4-dihydro-8-methoxy-4-oxoquinoline-3-carboxylic acid] | 98.2% | lack of effect | Measured bacterial titer (Log CFU/g of bone) Test compound (S. aureus ATCC 13709; 19.4 mg/kg IV, 1 day prior to infection): 5.40 ± 0.93 Log CFU/g of bone
COc1c(N2CCN(C(=O)CC(P(=O)(O)O)P(=O)(O)O)C(C)C2)c(F)cc2c(=O)c(C(=O)O)cn(C3CC3)c12 (centres unmarked) [Compound 112, 7-(4-(3,3-bisphosphonopropionyl)-3-methylpiperazin-1-yl)-1-cyclopropyl-6-fluoro-1,4-dihydro-8-methoxy-4-oxoquinoline-3-carboxylic acid] | 82.5% |  | 
COc1c(N2C[C@@H]3CCCN(C(=O)OCC(=O)Nc4ccc(CC(P(=O)(O)O)P(=O)(O)O)cc4)[C@@H]3C2)c(F)cc2c(=O)c(C(=O)O)cn(C3CC3)c12 [Compound 117, 7-((4aS,7aS)-1-(((4-(2,2-bisphosphonoethyl)phenylcarbamoyl)methoxy)carbonyl)-octahydropyrrolo[3,4-b]pyridin-6-yl)-1-cyclopropyl-6-fluoro-1,4-dihydro-8-methoxy-4-oxoquinoline-3-carboxylic acid] | 99.4% |  | 
COc1c(N2CCN(CCC(=O)c3ccc(OCCCC(P(=O)(O)O)P(=O)(O)O)cc3)C(C)C2)c(F)cc2c(=O)c(C(=O)O)cn(C3CC3)c12 (centres unmarked) [Compound 121, 1-cyclopropyl-6-fluoro-1,4-dihydro-7-(4-(3-(4-(4,4-bisphosphonobutoxy)phenyl)-3-oxopropyl)-3-methylpiperazin-1-yl)-8-methoxy-4-oxoquinoline-3-carboxylic acid] | 94.7% | efficient prophylactic effect | Measured bacterial titer (Log CFU/g of bone) Test compound (S. aureus ATCC 13709; 20.8 mg/kg IV, 1 day prior to infection): 3.01 ± 0.47 Log CFU/g of bone
COc1c(N2CCN(Cc3oc(=O)oc3-c3ccc(P(=O)(O)CP(=O)(O)O)cc3)C(C)C2)c(F)cc2c(=O)c(C(=O)O)cn(C3CC3)c12 (centres unmarked) [Compound 129, 1-Cyclopropyl-6-fluoro-1,4-dihydro-8-methoxy-7-(3-methyl-4-((2-oxo-5-(4-(phosphonomethylphosphinoyl)phenyl)-1,3-dioxol-4-yl)methyl)piperazin-1-yl)-4-oxoquinoline-3-carboxylic acid] | 63.7% | unable to produce a positive result in vivo | binding to osseous matter, in words [1]: less effectively bound; Measured bacterial titer (Log CFU/g of bone) Test compound (S. aureus ATCC 13709; 10.75 mg/kg IV, 2 days prior to infection): 6.14 ± 1.05 Log CFU/g of bone
COc1c(N2CCNC(C)C2)c(F)cc2c(=O)c(C(=O)OCC(=O)NCCCC[C@@H](NC(=O)COC(=O)c3cn(C4CC4)c4c(OC)c(N5CCNC(C)C5)c(F)cc4c3=O)C(=O)NC(P(=O)(O)O)P(=O)(O)O)cn(C3CC3)c12 (some centres unmarked) [Compound 134] | 92.8% |  | 
COc1c(N2CCN(C(=O)CC(C)(C)c3cc(P(=O)(O)CP(=O)(O)O)ccc3OC(=O)C(C)C)C(C)C2)c(F)cc2c(=O)c(C(=O)O)cn(C3CC3)c12 (centres unmarked) [Compound 145, 7-(4-(3-(2-(2,2-dimethylacetoxy)-5-((phosphonomethyl)phosphonoyl)phenyl)-3-methylbutanoyl)-3-methylpiperazin-1-yl)-1-cyclopropyl-6-fluoro-1,4-dihydro-8-methoxy-4-oxoquinoline-3-carboxylic acid] | 76.0% | unable to produce a positive result in vivo | binding to osseous matter, in words [1]: less effectively bound; Measured bacterial titer (Log CFU/g of bone) Test compound (S. aureus ATCC 13709; 47.2 mg/kg IV, 2 days prior to infection): 4.69 ± 0.78 Log CFU/g of bone
